In US8314082B2, “Stilbene derivatives for ADP-ribosyl cyclase inhibitors” (Industrial Cooperation Foundation Chonbuk National …, priority 2006, dated 2012):

How the values were obtained:
[1] = system: Ang II induced [Ca^2+]i increase in rat cardiomyocytes; test: Ang II-mediated [Ca2+]i increase in cardiomyocytes; format: cell-based; details: pretreatment with 1 mM; sustained but not initial Ca2+
Experimental: Cardiomyocytes were isolated from Sprague-Dawley rats, weighing 210-240 g, by the method with a slight modification [Xie et al., Biochem. Biophys. Res. Commun. (2005)330:1290-8]. Rat hearts were rapidly excised, cannulated, and subjected to retrograde perfusion on a Langendorff apparatus at 37° C. with Ca^2+-free Krebs-Hanseleit (KH) buffer (10 mM HEPES, 118 mM NaCl, 4.7 mM KCl, 1.2 mM MgSO4, 1.2 mM KH2PO4, 25 mM NaHCO3, 10 mM pyruvate, 11 mM glucose, and […], pH 7.3) for 5 min and then with KH buffer containing 5 mM taurine, 0.075% collagenase Type II and 0.08 mg/l protease type XTV for 7-15 min and washed with KH buffer containing 0.2 mM Ca^2+. The left ventricle was removed, chopped into small pieces and further digested in a glass conical flask at 37° C. for 10 min with shaking. The undigested tissues were removed through a […] nylon sheet. […] Isolated myocytes were pelleted by centrifugation at 60×g for 2 min at room temperature and resuspended in a stabilizing buffer (pH, 7.4) containing 20 mM HEPES, 137 mM NaCl, 4.9 mM KCl, 1.2 mM MgSO4, 15 mM glucose, and 10 mM 2,3-butanedione monoxime (BDM). […] Changes in [Ca^2+]i in cardiomyocytes were determined at 488 nm excitation/530 nm emission by air-cooled argon laser system. The emitted fluorescence at 530 nm was collected using a photomultiplier. […]

[2] = system: ADPR-cyclase purified partially from rat spleen; test: ADPR-cyclase activity assay, spleen enzyme; format: biochemical; parameters: dose or concentration left out as unconfirmed
Experimental: (§1) FIGS. 1A and 1B show the inhibition of rat kidney ADPR-cyclase that was incubated with […] NGD^+ or e-NAD^+ in the presence of various concentrations of 4,4′-dihydrioxyazobenzene (DHAB) at 37° C. for 10 min and effects of DHAB on human CD38, rat brain, heart, spleen, and kidney ADPR-cyclase. FIGS. 1A and 1B are referred to as FIG. 1 herein.
(§2) Specific ADPR-cyclase activity was determined by measuring cyclic GDP-ribose (cGDPR) or etheno-ADP-ribose (e-cADPR) fluorometrically using NGD^+ or e-NAD^+ as a substrate [Greaff et al., Biochem. J. (2002)361:379-84]. Samples were incubated in the presence […] NGD^+ or e-NAD^+ with and without an appropriate agent in an assay buffer (25 mM HEPES, pH 7.4, 100 mM NaCl, and 0.1% Triton X-100) in a […]. The reaction mixture was incubated at 37° C. for 10 min. The reaction was stopped by adding […] trichloroacetic acid (10%). […] Fluorescence of cGDPR or e-ADPR in the solution was determined at excitation/emission wavelengths of 297/410 nm (HITACHI F-2000 fluorescence spectrophotometer). cADPR-hydrolase activity was determined by incubating cADPR with ADPR-cyclase or CD38 at 37° C. for 20 min. Hydrolysis of cADPR was analyzed by high performance liquid chromatography as described (White et al., 2000). […]

STZ diabetic mice = test: Diabetic nephropathy in STZ diabetes mouse model; format: in vivo; details: 45 μg/kg i.p. once a day for 6 weeks, mean SE, n = 6
Experimental: Male mice, weighing 20 25 g, were made diabetic by a single intravenous injection of STZ (65 mg/kg body weight) in 0.05 M citrate buffer (pH 4.8). At the same day, the control mice were injected with the citrate buffer. After 2 days, induction of diabetes was confirmed by tail blood glucose level measurement by using the LifeScan One Touch glucometer (Johnson & Johnson). The diabetic mice (>16 mM blood glucose) were randomly divided into two groups; 6 mice per group treated with vehicle (0.1% DMSO in saline, 100 μl) or DHAB (45 μg/kg body weight in 0.1% DMSO in saline, 100 μl) and resveratrol (45 μg/kg body weight in 0.1% DMSO in saline, 100 μl) administered by intraperitoneal injection once a day for 6 weeks. The control mice were 6 mice per group treated with the vehicle. On day 39, the mice were detained in individual metabolic cages for 24 h for urine collection. On day 42, the mice were anesthetized with diethyl ether, and blood samples were taken from the abdominal aorta. Bilateral kidneys were rapidly removed and weighed. Urine was gravimetrically collected, and urinary albumin concentrations were determined with an enzyme-linked immunosorbent assay using a murine microalbuminuria kit (Albuwell; Exocell, Philadelphia, Pa.). Urine and serum creatinine levels were measured using the QuantiChrom Creatinine Assay Kit (BioAssay Systems, Hayward, Calif.), following the manufacturer's protocol.

human CD38 = target: T1, human CD38 (Homo sapiens, UniProt P28907); test: ADPR-cyclase activity assay, CD38; format: biochemical; parameters: dose or concentration left out as unconfirmed
T1 sequence (P28907 1-300): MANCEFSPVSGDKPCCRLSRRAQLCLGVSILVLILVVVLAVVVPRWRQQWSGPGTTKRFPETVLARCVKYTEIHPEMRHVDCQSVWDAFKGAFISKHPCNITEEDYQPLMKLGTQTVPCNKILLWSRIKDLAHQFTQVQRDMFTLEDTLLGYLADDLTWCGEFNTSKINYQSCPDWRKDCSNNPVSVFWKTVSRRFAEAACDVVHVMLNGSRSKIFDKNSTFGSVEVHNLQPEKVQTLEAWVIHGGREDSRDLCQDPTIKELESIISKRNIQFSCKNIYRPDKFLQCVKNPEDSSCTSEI
Experimental: as §1, §2

[3] = system: ADPR-cyclase purified partially from rat brain; test: ADPR-cyclase activity assay, brain enzyme; format: biochemical; parameters: dose or concentration left out as unconfirmed
Experimental: as §1, §2

Structure (SMILES) | effect on Ang II-evoked sustained Ca2+ increase [1] | sensitivity of enzyme activity to compound [2] | Urine output (STZ diabetic mice; 24 h metabolic cage) [mL/day] | Body Weight (STZ diabetic mice) [g] | Food intake (STZ diabetic mice) [g] | Plasma glucose (STZ diabetic mice) [mg/dL] | Urinary Albumin (STZ diabetic mice) [µg/day] | Water intake (STZ diabetic mice) [mL] | sensitivity of enzyme activity to compound (human CD38) | sensitivity of enzyme activity to compound [3]
Oc1ccccc1/N=N/c1ccccc1O [2,2′-DHAB, 2,2′-Dihydroxyazobenzene] | significantly blocked | – | – | – | – | – | – | – | – | –
Oc1ccc(N=Nc2ccc(O)cc2)cc1 [4,4′-DHAB, 4,4′-Dihydroxyazobenzene] | – | insensitive | 2.27 ± 1.80 | 22.1 ± 0.58 | 2.27 ± 0.61 | 342 ± 36.1 | 4.01 ± 3.61 | 2.00 ± 1.73 | insensitive | insensitive
